Measurements from patent publication US20150367004A1, “COMPOSITIONS AND METHODS OF DIAGNOSING OCULAR DISEASES” (MOLECULAR TARGETING TECHNOLOGIES, INC., priority 2012, published 2015).

Tested on: corneal surface after BAC-induced toxicity
Experiment: In vivo fluorescence imaging of the cornea after BAC-induced corneal toxicity, compared with lissamine green staining
Parameters: species or system rat
Conditions: 0.1% and 0.2% BAC twice daily for 7 days
Protocol: Adult Wistar rats were given topical instillation of 0.2, 0.1 and 0.02% BAC in 0.9% balanced salt solution (BSS) twice daily for 7 days. External ocular examination was performed and lissamine green staining was used to evaluate the corneal damage prior to and after experiments. One hour after topical Zn-DPA 480 administration, convention light and fluorescence images were taken on animals.
There was no remarkable change on the cornea after administration of BSS. Results are illustrated in FIG. 3.

Question: For CN(C)c1ccc(C(=C2C=CC(=[N+](C)C)C=C2)c2c(O)c(S(=O)(=O)[O-])cc3cc(S(=O)(=O)[O-])ccc23)cc1.[Na+] [lissamine green], which Corneal staining is on record?
Answer: positive lissamine green staining
